Test system: IGROV1 complex spheroids (HUVEC, MSC), viability % test/control
Experiment: Anticancer human tumor IGROV1 cell line growth inhibition [GQUAD];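 further: spheroids exposed to compounds for 7 days before readout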;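 on viability, T/C: 100% = DMSO vehicle control viability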
Conditions: for IC50: curve of first compound; for viability, T/C: stronger effect = lower value
Procedure, shortened: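 Viability of tumor cells grown as complex spheroids with endothelial and stromal cells, exposed to drug combinations. Top concentration at or near clinical Cmax (else 10 microM), diluted in half-log increments.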

[1] = second compound 0.0316 µM, first compound 0.0316 µM
[2] = second compound 0.0316 µM, first compound 0.1 µM
[3] = second compound 0.0316 µM, first compound 0.316 µM
[4] = second compound 0.0316 µM, first compound 1 µM
[5] = second compound 0.0316 µM, first compound 3.16 µM
[6] = second compound 0.0316 µM, first compound 10 µM
[7] = second compound 0.1 µM, first compound 0.0316 µM
[8] = second compound 0.1 µM, first compound 0.1 µM
[9] = second compound 0.1 µM, first compound 0.316 µM
[10] = second compound 0.1 µM, first compound 1 µM
[11] = second compound 0.1 µM, first compound 3.16 µM
[12] = second compound 0.1 µM, first compound 10 µM
[13] = second compound 0.316 µM, first compound 0.0316 µM
[14] = second compound 0.316 µM, first compound 0.1 µM
[15] = second compound 0.316 µM, first compound 0.316 µM
[16] = second compound 0.316 µM, first compound 1 µM
[17] = second compound 0.316 µM, first compound 3.16 µM
[18] = second compound 0.316 µM, first compound 10 µM
[19] = second compound 1 µM, first compound 0.0316 µM
[20] = second compound 1 µM, first compound 0.1 µM
[21] = second compound 1 µM, first compound 0.316 µM
[22] = second compound 1 µM, first compound 1 µM
[23] = second compound 1 µM, first compound 3.16 µM
[24] = second compound 1 µM, first compound 10 µM
[25] = second compound 3.16 µM, first compound 0.0316 µM
[26] = second compound 3.16 µM, first compound 0.1 µM
[27] = second compound 3.16 µM, first compound 0.316 µM
[28] = second compound 3.16 µM, first compound 1 µM
[29] = second compound 3.16 µM, first compound 3.16 µM
[30] = second compound 3.16 µM, first compound 10 µM
[31] = second compound 10 µM, first compound 0.0316 µM
[32] = second compound 10 µM, first compound 0.1 µM
[33] = second compound 10 µM, first compound 0.316 µM
[34] = second compound 10 µM, first compound 1 µM
[35] = second compound 10 µM, first compound 3.16 µM
[36] = second compound 10 µM, first compound 10 µM

Compound `COc1cccc2c1C(=O)c1c(O)c3c(c(O)c1C2=O)CC(O)(C(=O)CO)CC3OC1CC(N)C(O)C(C)O1` (stereo unspecified) + Cc1[nH]c2ccc(F)cc2c1-c1nc2c3cccnc3c3ncccc3c2[nH]1 has an IC50 (second compound 0.0316 µM) of 0.0581 µM, an IC50 (second compound 0.1 µM) of 0.0459 µM and an IC50 (second compound 0.316 µM) of less than 0.0316 µM. For the same compound, the IC50 (second compound 1 µM) was less than 0.0316 µM, the IC50 (second compound 3.16 µM) was less than 0.0316 µM and the IC50 (second compound 10 µM) was less than 0.0316 µM. For the same compound, the viability, T/C [1] was 77.6%, the viability, T/C [2] was 24.5% and the viability, T/C [3] was 9.18%. The viability, T/C [4] was 3.35%, the viability, T/C [5] was 0.15% and the viability, T/C [6] was 0.53%. The viability, T/C [7] was 62.3%, the viability, T/C [8] was 23.6% and the viability, T/C [9] was 10.5%. For the same compound, the viability, T/C [10] was 4.39%, the viability, T/C [11] was 0.11% and the viability, T/C [12] was 0.5%. It also gave a viability, T/C [13] of 34.7%, a viability, T/C [14] of 21.4% and a viability, T/C [15] of 7.11%. It also gave a viability, T/C [16] of 4.13%, a viability, T/C [17] of 0.18% and a viability, T/C [18] of 0.43%. The viability, T/C [19] was 4.23%, the viability, T/C [20] was 5.09% and the viability, T/C [21] was 3.51%. For the same compound, the viability, T/C [22] was 1.63%, the viability, T/C [23] was 0.1% and the viability, T/C [24] was 0.52%. The viability, T/C [25] was 3.48%, the viability, T/C [26] was 5.09% and the viability, T/C [27] was 3.34%. The viability, T/C [28] was 1.41%, the viability, T/C [29] was 0.08% and the viability, T/C [30] was 0.36%. For the same compound, the viability, T/C [31] was 4.02%, the viability, T/C [32] was 3.99% and the viability, T/C [33] was 2.84%. For the same compound, the viability, T/C [34] was 1.32%, the viability, T/C [35] was 0.18% and the viability, T/C [36] was 0.42%.

`Cc1[nH]c2ccccc2c1CCNCc1ccc(/C=C/C(=O)NO)cc1` + Cc1[nH]c2ccc(F)cc2c1-c1nc2c3cccnc3c3ncccc3c2[nH]1 gave an IC50 (second compound 0.0316 µM) of 0.0228 µM, an IC50 (second compound 0.1 µM) of 0.0176 µM and an IC50 (second compound 0.316 µM) of 0.0106 µM. The IC50 (second compound 1 µM) was less than 0.000999 µM, the IC50 (second compound 3.16 µM) was less than 0.000999 µM and the IC50 (second compound 10 µM) was less than 0.000999 µM. The viability, T/C (second compound 0.0316 µM, first compound 0.000999 µM) was 107%, the viability, T/C (second compound 0.0316 µM, first compound 0.00316 µM) was 88.2% and the viability, T/C (second compound 0.0316 µM, first compound 0.00999 µM) was 80%. For the same compound, the viability, T/C [1] was 40.3%, the viability, T/C (second compound 0.0316 µM, first compound 0.0999 µM) was 4.14% and the viability, T/C [3] was 0.24%. For the same compound, the viability, T/C (second compound 0.1 µM, first compound 0.000999 µM) was 91.8%, the viability, T/C (second compound 0.1 µM, first compound 0.00316 µM) was 102% and the viability, T/C (second compound 0.1 µM, first compound 0.00999 µM) was 64.4%. The viability, T/C [7] was 32.3%, the viability, T/C (second compound 0.1 µM, first compound 0.0999 µM) was 5.9% and the viability, T/C [9] was 0.36%. It also gave a viability, T/C (second compound 0.316 µM, first compound 0.000999 µM) of 61.7%, a viability, T/C (second compound 0.316 µM, first compound 0.00316 µM) of 67.6% and a viability, T/C (second compound 0.316 µM, first compound 0.00999 µM) of 48.2%. The viability, T/C [13] was 28.6%, the viability, T/C (second compound 0.316 µM, first compound 0.0999 µM) was 5.96% and the viability, T/C [15] was 0.21%. It also gave a viability, T/C (second compound 1 µM, first compound 0.000999 µM) of 3.99%, a viability, T/C (second compound 1 µM, first compound 0.00316 µM) of 3.36% and a viability, T/C (second compound 1 µM, first compound 0.00999 µM) of 2.02%. For the same compound, the viability, T/C [19] was 2.26%, the viability, T/C (second compound 1 µM, first compound 0.0999 µM) was 2.15% and the viability, T/C [21] was 0.14%. For the same compound, the viability, T/C (second compound 3.16 µM, first compound 0.000999 µM) was 2.38%, the viability, T/C (second compound 3.16 µM, first compound 0.00316 µM) was 2.86% and the viability, T/C (second compound 3.16 µM, first compound 0.00999 µM) was 1.81%. It also gave a viability, T/C [25] of 1.14%, a viability, T/C (second compound 3.16 µM, first compound 0.0999 µM) of 0.49% and a viability, T/C [27] of 0.09%. It also gave a viability, T/C (second compound 10 µM, first compound 0.000999 µM) of 3.6%, a viability, T/C (second compound 10 µM, first compound 0.00316 µM) of 3.82% and a viability, T/C (second compound 10 µM, first compound 0.00999 µM) of 2.17%. For the same compound, the viability, T/C [31] was 1.25%, the viability, T/C (second compound 10 µM, first compound 0.0999 µM) was 0.54% and the viability, T/C [33] was 0.17%.

`O=c1[nH]cc(F)c(=O)[nH]1` + Cc1[nH]c2ccc(F)cc2c1-c1nc2c3cccnc3c3ncccc3c2[nH]1 was tested, and the IC50 (second compound 0.0316 µM) was 6.75 µM, the IC50 (second compound 0.1 µM) was 5.5 µM and the IC50 (second compound 0.316 µM) was 4 µM. The IC50 (second compound 1 µM) was less than 0.0316 µM, the IC50 (second compound 3.16 µM) was less than 0.0316 µM and the IC50 (second compound 10 µM) was less than 0.0316 µM. For the same compound, the viability, T/C [1] was 104%, the viability, T/C [2] was 83.6% and the viability, T/C [3] was 103%. For the same compound, the viability, T/C [4] was 80.3%, the viability, T/C [5] was 82.6% and the viability, T/C [6] was 34.5%. The viability, T/C [7] was 96.1%, the viability, T/C [8] was 104% and the viability, T/C [9] was 84%. The viability, T/C [10] was 69.5%, the viability, T/C [11] was 80.8% and the viability, T/C [12] was 27.8%. For the same compound, the viability, T/C [13] was 79.6%, the viability, T/C [14] was 67.5% and the viability, T/C [15] was 77.1%. It also gave a viability, T/C [16] of 70.8%, a viability, T/C [17] of 55.4% and a viability, T/C [18] of 24.3%. The viability, T/C [19] was 5.37%, the viability, T/C [20] was 4.95% and the viability, T/C [21] was 4.49%. It also gave a viability, T/C [22] of 4.87%, a viability, T/C [23] of 5.05% and a viability, T/C [24] of 5.26%. It also gave a viability, T/C [25] of 4.5%, a viability, T/C [26] of 4.46% and a viability, T/C [27] of 5.38%. The viability, T/C [28] was 4.48%, the viability, T/C [29] was 5.61% and the viability, T/C [30] was 4.44%. The viability, T/C [31] was 4.32%, the viability, T/C [32] was 4.75% and the viability, T/C [33] was 4.71%. The viability, T/C [34] was 4.66%, the viability, T/C [35] was 4.72% and the viability, T/C [36] was 5.12%.

Reference: PubChem BioAssay AID2060486 (Molecular Pharmacology Branch, DTP, NCI, 2025)
